Measured values taken from patent US12636810B2, “Wood preservative composition comprising 4,5-dichloro-2-octylisothiazol-3(2H)-one, a method treating a wood substrate therewith, and a wood product produced therefrom” (KOPPERS PERFORMANCE CHEMICALS, INC., priority 2021, dated 2026).

Experiment: Organic solvent solvency with DCOI and retaining additive testing
Type: physicochemical
Design: key: Low: low solvency; Medium: medium solvency; High: high solvency
Settings: 23.5% DCOI and 25.0% Chempol 801-2164 in the solvent; 40 degrees Fahrenheit; separation, precipitation, turbidity
Method: For testing the solvency (i.e., ability to dissolve) of the organic solvent for DCOI and the retaining additive, 4.7 gram of DCOI and 5.0 g of retaining additive were dissolved in 10.3 gram of organic solvent to make a 23.5% of DCOI and 25.0% resin solution in a clear 20 ml glass vial. Thereafter, the vial is stored at a selected temperature (i.e., ambient temperature, 40 degrees Fahrenheit, or 120 degree Fahrenheit or whenever a crosslinking may occur). The vial is monitored for up to 7 days for phase separation, precipitation, and turbidity, which may indicate incompatibility between the organic solvent and the retaining additive and/or DCOI. The as prepared solution is maintained at room temperature and 40 degrees Fahrenheit for up to 7 days or whenever a phase separation, precipitation or solution turbidity event happens to disqualify the solution.
The solvents were tested at 40 degrees Fahrenheit and rated low solvency, medium solvency, or high solvency based on the amount, if any, of separation, precipitation, and turbidity observed in each solution.

## OCc1ccccc1 [Benzyl Alcohol]
  DCOI/Resin Solvency: High
